Laboratory results as given in patent US20250282795A1, “EGFR Inhibitors in cancer treatment” (Celyn Therapeutics, Inc., priority 2022, published 2025).

Legend:
Type in all cases: cell-based
Ba/F3 (L858R + T790M) = experiment: Cellular growth inhibition assay (CellTiter-Glo), Ba/F3 (L858R+T790M); conditions: Mus musculus, BaF3, 72 h; 3 days of incubation
Experimental: (§1) Example E. Cellular Growth Inhibition Assay
(§2) Ba/F3(Empty vector) (Signosis), Ba/F3(Wild type) (Signosis), Ba/F3(L^858R+T790M) (Signosis), Ba/F3(A767_dupASV) (Signosis), Ba/F3(D770_N771insSVD) (Signosis), Ba/F3(H773_V774insNPH) (Signosis) were seeded at a density of 4000 cells per well in a CellBIND® 384-well Flat Clear Bottom Black Polystyrene Microplates (Coming, USA, Cat #3770) in 45 μl total volume of RPMI (PanEco, Cat #C330, Russia) with […] (HyClone, Cat #SV30160.03) and with 10 ng/ml rmIL-3 (RD systems, USA, Cat #403-ML-025) (for BaBF3(Empty vector)) and with 10 ng/ml rhEGF (ThermoFisher, USA, Cat #PHG0311L) (for BaCF3(Wild type)). 500× compounds solutions in DMSO (Sigma Cat #D2650) were prepared into Cmpnds plate (DiamondWell Plate, Axigen, Cat #P-384-120SQ-C—S) and DMSO only control was included. 1.l of 500× compounds (Cmpnds plate) was added to 49 µl of culture medium into Dilution plate (Diamond Well Plate, Axigen, Cat #P-384-120SQ-C—S), mixed and then 5 μl of 10× compounds solutions were transferred to cells followed by centrifugation at 100 g for 1 min. Final DMSO concentration was 0.2% o. After 3 days of incubation 10.l of CellTiter-Glo (Promega, CAT #G7572) were added to the cells, plate was centrifuged at 100 g for 1 min and luminescence signal was measured using Microplate Reader (CLARIOStar).

Ba/F3 (A767_dupASV) = experiment: Cellular growth inhibition assay (CellTiter-Glo), Ba/F3 (A767_dupASV); conditions: Mus musculus, BaF3, 72 h; 3 days of incubation; read-out: Ba/F3 (A767_dup ASV) CC50
Experimental: as §1, §2

Ba/F3 (D770_N771insSVD) = experiment: Cellular growth inhibition assay (CellTiter-Glo), Ba/F3 (D770_N771insSVD); conditions: Mus musculus, BaF3, 72 h; 3 days of incubation; read-out: Ba/F3 (D770_N771 insSVD) CC50
Experimental: as §1, §2

Ba/F3 (H773_V774insSVD) = experiment: Cellular growth inhibition assay (CellTiter-Glo), Ba/F3 (H773_V774insSVD); conditions: Mus musculus, BaF3, 72 h; 3 days of incubation; read-out: Ba/F3 (H773_V774 insSVD) CC50
[1] = Cellular growth inhibition assay (CellTiter-Glo), Ba/F3 (Empty vector); conditions: mouse, Ba/F3 cells with empty vector; Ba/F3 (Empty vector) with 10 ng/ml rmIL-3, 3 days of incubation
Experimental: as §1, §2

Row | Structure (SMILES) | CC50 (Ba/F3 (L858R + T790M)) | CC50 (Ba/F3 (A767_dupASV)) | CC50 (Ba/F3 (D770_N771insSVD)) | CC50 (Ba/F3 (H773_V774insSVD)) | CC50 at 3 days [1]
1 | COc1c(F)cccc1Nc1c2[nH]c3c1C(=O)NC[C@@H]3CCCN1CC[C@@H](COc3cnccc3-2)C1 (stereo in doubt) [Compound 162, 20-[(3-Fluoro-2-methoxyphenyl)amino]-6,7,8,9,11,12,13,13a,14,15-decahydro-7,10-methano-17,19-methenodipyrido[3,4-b:4′,3′-f][1,5,11]oxadiazacyclopentadecin-16(18H)-one] | > 10 µM | > 10 µM | > 10 µM | > 10 µM | > 10 µM
2 | COc1c(F)cccc1Nc1c2[nH]c3c1C(=O)NC[C@H]3CCCN1CC[C@@H](COc3cnccc3-2)C1 (stereo in doubt) [Compound 163, 20-[(3-Fluoro-2-methoxyphenyl)amino]-6,7,8,9,11,12,13,13a,14,15-decahydro-7,10-methano-17,19-methenodipyrido[3,4-b:4′,3′-f][1,5,11]oxadiazacyclopentadecin-16(18H)-one] | > 10 µM | 0.01 to 0.1 µM | 0.1 to 1 µM | 0.1 to 1 µM | > 10 µM
3 | COc1c(F)cccc1Nc1c2[nH]c3c1C(=O)NCC3CCCN1CCCC(COc3cnccc3-2)C1 (stereo not shown) [Compound 12, 21-[(3-Fluoro-2-methoxyphenyl)amino]-7,8,9,10,12,13,14,14a,15,16-decahydro-6H-7,11-methano-18,20-methenodipyrido[3,4-b:4′,3′-f][1,5,11]oxadiazacyclohexadecin-17(19H)-one] | > 10 µM | 0.1 to 1 µM | 1 to 10 µM | > 10 µM | > 10 µM
4 | COc1c(F)cccc1Nc1c2[nH]c3c1C(=O)NCC3CCCCCOc1cnccc1-2 (stereo not shown) [Compound 101, 1^3-((3-Fluoro-2-methoxyphenyl)amino)-1^4,1^5,1^6,1^7-tetrahydro-l^1H-3-oxa-1(2,7)-pyrrolo[3,2-c]pyridina-2(4,3)-pyridinacyclooctaphan-1^4-one] | 1 to 10 µM | 0.01 to 0.1 µM | 0.1 to 1 µM | 0.1 to 1 µM | > 10 µM
5 | COc1c(F)cccc1Nc1c2[nH]c3c1C(=O)NCC3CCCCN1CC(COc3cnccc3-2)C1 (stereo not shown) [Compound 123, 20-(3-fluoro-2-methoxyanilino)-7,8,11,12,13,13a,14,15-octahydro-6H,10H-7,9-methano-17,19-(metheno)dipyrido[3,4-b: 4′,3′-f][1,5,12]oxadiazacyclopentadecin-16(18H)-one] | 0.1 to 1 µM | 0.001 to 0.01 µM | 0.01 to 0.1 µM | 0.1 to 1 µM | 1 to 10 µM
6 | COc1c(F)cccc1Nc1c2[nH]c3c1C(=O)NC(CCCCOCCOc1cnccc1-2)C3 (stereo not shown) [Compound 133, 20-(3-fluoro-2-methoxyanilino)-2,3,5,6,7,8,9,10-octahydro-9,13-methano-12,15-(metheno)pyrido[3,4-e][1,4,8,12]dioxadiazacycloheptadecin-11(14H)-one] | > 10 µM | 1 to 10 µM | > 10 µM | > 10 µM | > 10 µM
7 | COc1c(F)cccc1Nc1c2[nH]c3c1C(=O)NCC3CC=CCN1CCC(CC1)COc1cnccc1-2 (stereo not shown) [Compound 135, 21-(3-fluoro-2-methoxyanilino)-6,7,8,9,14,14a,15,16-octahydro-11H-7,10-ethano-18,20-(metheno)dipyrido[3,4-b: 4′,3′-f][1,5,12]oxadiazacyclohexadecin-17(19H)-one] | > 10 µM | > 10 µM | > 10 µM | > 10 µM | > 10 µM
8 | COc1c(F)cccc1Nc1c2[nH]c3c1C(=O)NCC3CCCCN1CCC(CC1)COc1cnccc1-2 (stereo not shown) [Compound 136, 21-[(3-Fluoro-2-methoxyphenyl)amino]-6,7,8,9,12,13,14,14a,15,16-decahydro-11H-7,10-ethano-18,20-methenodipyrido[3,4-b:4′,3′-f][1,5,12]oxadiazacyclohexadecin-17(19H)-one] | > 10 µM | 1 to 10 µM | > 10 µM | > 10 µM | > 10 µM
9 | COc1c(F)cccc1Nc1c2[nH]c3c1C(=O)NCC3CCCOCCCCCCN1CCC(CC1)Oc1cnccc1-2 (stereo not shown) [Compound 137, 28-(3-fluoro-2-methoxyanilino)-1,2,13,14,16,17,18,19,20,21,23,24,25,25a-tetradecahydro-12H-12,15-ethano-4,6-(metheno)dipyrido[3,4-b: 4′,3′-f][1,11,5,18]dioxadiazacyclohenicosin-3(5H)-one] | 1 to 10 µM | 0.1 to 1 µM | 1 to 10 µM | 1 to 10 µM | > 10 µM
10 | COc1c(F)cccc1Nc1c2[nH]c3c1C(=O)NCC3CC(=O)N1CC(CCOc3cnccc3-2)C1 (stereo not shown) [Compound 139, 19-(3-fluoro-2-methoxyanilino)-6,7,8,9,12,12a,13,14-octahydro-11H-8,10-methano-16,18-(metheno)dipyrido[3,4-b: 4′,3′-f][1,5,10]oxadiazacyclotetradecine-11,15(17H)-dione] | > 10 µM | 0.1 to 1 µM | 1 to 10 µM | 1 to 10 µM | > 10 µM
11 | COc1c(F)cccc1Nc1c2[nH]c3c1C(=O)NCC3CC(=O)N[C@@H](C)C(=O)NCCCOc1cnccc1-2 (stereo partly drawn) [Compound 140, (11S)-21-(3-fluoro-2-methoxyanilino)-11-methyl-6,7,8,9,11,12,14,14a,15,16-decahydro-18,20-(metheno)dipyrido[3,4-k: 4′,3′-o][1,5,8,13]oxatriazacyclohexadecine-10,13,17(19H)-trione] | > 10 µM | 1 to 10 µM | > 10 µM | > 10 µM | > 10 µM
12 | COc1c(F)cccc1Nc1c2[nH]c3c1C(=O)NCC3CC(=O)N[C@H](C)C(=O)NCCCOc1cnccc1-2 (stereo partly drawn) [Compound 141, (11R)-21-(3-fluoro-2-methoxyanilino)-11-methyl-6,7,8,9,11,12,14,14a,15,16-decahydro-18,20-(metheno)dipyrido[3,4-k: 4′,3′-o][1,5,8,13]oxatriazacyclohexadecine-10,13,17(19H)-trione] | > 10 µM | 0.1 to 1 µM | 1 to 10 µM | > 10 µM | > 10 µM
13 | COc1c(F)cccc1Nc1c2[nH]c3c1C(=O)NCC3CCCOCCNCCCOc1cnccc1-2 (stereo not shown) [Compound 143, 22-(3-fluoro-2-methoxyanilino)-6,7,8,9,10,11,13,14,15,15a,16,17-dodecahydro-19,21-(metheno)dipyrido[3,4-i: 4′,3′-m][1,8,4,12]dioxadiazacycloheptadecin-18(20H)-one] | > 10 µM | > 10 µM | > 10 µM | > 10 µM | > 10 µM
14 | COc1c(F)cccc1Nc1c2[nH]c3c1C(=O)NC[C@H]3CCCN1CCO[C@H](COc3cnccc3-2)C1 [Compound 158, (7S)-21-[(3-Fluoro-2-methoxyphenyl)amino]-6,7,9,10,12,13,14,14a,15,16-decahydro-7,11-methano-18,20-methenodipyrido[3,4-k:4′,3′-o][1,4,7,13]dioxadiazacyclohexadecin-17(19H)-one] | > 10 µM | 0.1 to 1 µM | 1 to 10 µM | 1 to 10 µM | 1 to 10 µM
